Measured values reported in US7638516B2, “Agent for therapeutic treatment of optic nerve diseases and the like” (Mei Co., Ltd., priority 2000, dated 2009).

Tested on: retinal degeneration induced by transient retinal ischemia
Assay: Suppressing effect on retinal degeneration in transient retinal ischemia
Format: in vivo, Wister male rats
Conditions: rat, 3 mg/kg into the caudal vein immediately before and after ocular hypertension treatment (IOP 130 mmHg, 50 minutes); 7 days after treatment; p<0.01 relative to control
Experimental: Wister male rats (body weight of about 200 g) were used. Each animal was subjected to sufficient warming treatment by using a thermal plate under anesthesia, and the head was fixed by using a stereotaxic apparatus. In order to induce transient retinal ischemia, IOP was maintained at 130 mmHg for 50 minutes by injecting intraocular irrigating solution into the anterior chamber via the cornea using an infusion tube and 30 G injection needle which were connected to a bottle held at 174 cm above the eyes (ocular hypertension treatment) according to the method of Akaike (Folia Pharmacologica Japonica, 111, pp. 97-104 (1998)). The ocular hypertension treatment was performed only on the right eye, and the left eye was left untreated. Immediately before and after the ocular hypertension treatment, a physiological saline solution or a dose of 3 mg/kg of MCI-186 was injected to the caudal vein. […] That is, a light-microscopic section of the retina was prepared 7 days after the ocular hypertension treatment, and the thickness of the retina was measured under microscope by using a micrometer (thickness from inner plexiform layer to inner nuclear layer). […] 7 days after the ocular hypertension treatment. Data represent means±SEM. As for the number of animals, the control group consisted of 10 rats, and the MCI-186 group consisted of 11 rats. […]

SMILES: CC1=NN(c2ccccc2)C(=O)C1 [MCI-186, 3-methyl-1-phenyl-2-pyrazolin-5-one]
- retinal degeneration induced by transient retinal ischemia (retinal thickness ratio, ocular hypertension treated eye/normal eye): significantly suppressed
